EP2065031A1, “Skin treatment composition” (Evonik Goldschmidt GmbH, priority 2007, dated 2009)

How the values were obtained:
[1] = solubility of arjunolic acid in water, cosmetic oils and solvents; type: physicochemical
Text: Skin is subject to deterioration through the passage of time (chronological aging, dermatological disorders, hormonal changes, environmental abuse (wind, air conditioning, central heating, pollution) all of which may be accelerated by exposure of skin to radiation from the sun (photoaging). Chronological aging and photoaging is summarized under the term aging. Consumers are increasingly seeking cosmetic products which treat or delay the visible signs of aging skin such as wrinkles, lines, loss of elasticity, uneven skin tone, dry skin, sagging, hyperpigmentation and age spots. There continues to be a need, however, for alternative effective cosmetic compositions for topical application to skin for treating and delaying skin aging. […] This effect be boosted by combinations with at least one additional active selected from the group of anti-aging, anti-inflammatory, anti-cellulite, moisturization, skin barrier improving, anti-wrinkle, firming, soothing or calming active ingredients. As described above arjunolic acid is poorly soluble in common solvents: It is insoluble in water and poorly soluble in cosmetic oils like mineral oil, isopropyl myristate or other ester oils or cosmetic solvents like propylene glycol or glycerol. The solubility of arjunolic acid in propylene glycol is only 0.6%; in ispropylmyristate, mineral oil and glycerin less than 0.1% arjunolic acid are soluble. This leads to the problem that it is very difficult to keep a sufficient amount of arjunolic acid solubilized in the cosmetic preparation without crystallization.

[2] = tested on: TSP1; assay: TSP1 expression in reconstructed human epidermis (RHE) skin models, real time RT-PCR; type: cell-based; conditions: 50 µl aqueous formulation containing 0.325% arjunolic acid, 48 hours, versus formulation without arjunolic acid, read-out: increased expression of TSP1
Procedure: Since thrombospondin 1 (TSP1) has been described by Murphy-Ullrich et al. 2000, Cytokine & Growth Factor Reviews; 11: 59-69 as one of the most important endogenous activators of TGF-β1 we investigated the effect of arjunolic acid on TSP1 expression in reconstructed human epidermis (RHE) skin models.
For this purpose RHE skin models (SkinEthic laboratories, Nice, France) were incubated with 50 µl of the test formulation (aqueous arjunolic acid formulation containing 0.325% arjunolic acid, 3% Glyceryl Stearate, 3% Ceteareth-20, 1% Stearyl Alcohol, 4% Cetearyl Ethylhexanoate/Isopropylmyristate and 4% Caprylic/Capric Triglyceride) in a humidified atmosphere containing 5 % CO2 for 48 hours. Then cell culture supernatants were removed and skin models were immediately transferred into a 2 ml reaction tube containing 1,5 ml RNAlater RNA stabilisation reagent (#76104, Qiagen, Hilden, Germany) to avoid RNA degradation. Controls received formulation without arjunolic acid only. […] Real time RT-PCR analysis was performed to quantify expression of TSP1. […] Results were analysed with SDS 2.0 software (Applied Biosystems). Relative quantification was performed according to the delta-delta-Ct method with 18s ribosomal RNA (18s rRNA) used as a house keeping gene.

[3] = tested on: skin; assay: transepidermal water loss (Tewameter) in volunteers; type: in vivo, human; conditions: formulation with 0.1625% arjunolic acid versus carrier, twice daily, 4 weeks, left inner forearm, figure 1
Text: (§1) For the study 30 volunteers were recruited. 15 volunteers got the test formulation with 0.1625% arjunolic acid, 15 got the formulation without active ingredient (carrier). They applied the test formulation twice daily over a period of 4 weeks on the left inner forearm. A Tewameter (TM 300, Courage & Khazaka, Cologne, D) was used to determine the transepidermal water loss. A corneometer (CM825, Courage & Khazaka, Cologne, D) was used to determine the skin hydration. The measurements were performed before the application started and after 4 weeks. Before the measurement started the panelists had to climatize in a climatic room at 21-22°C and 50% relative humidity for at least 15 min.

[4] = tested on: skin; assay: skin hydration (corneometer) in volunteers; type: in vivo, human; conditions: formulation with 0.1625% arjunolic acid, twice daily, 4 weeks, left inner forearm, figure 2
Text: as §1

[5] = tested on: skin; assay: skin elasticity (Cutometer) in volunteers; type: in vivo, human; conditions: formulation containing 0.1625% arjunolic acid, twice daily, 8 weeks, left inner forearm
Procedure: Method: For this study 30 volunteers were recruited. 15 volunteers got the test formulation with 0.1625% arjunolic acid, 15 got the formulation without active ingredient (carrier). They applied the test formulation twice daily over a period of 8 weeks on the left inner forearm.
The skin elasticity was assessed with a Cutometer MPA 580 (Courage & Khazaka, Cologne, D) which measures the vertical deformation of the skin when sucked into the loop of a measuring probe and reversed into its original condition. From the stretching/release cycles different parameters describing the skin elasticity were calculated. The parameter R1 describes the remaining deformation after the first stretching cycle while R5 is known as netto elasticity (R5 = UR/UE).
For the stretching a vacuum of 450 mbar was kept for 5s, the relaxing time was also 5s. The measurement was carried out after a climatization of the volunteers at room temperature and 50 % relative humidity for at least 15 min. before the treatment started and after 8 weeks of application.

[6] = tested on: skin; assay: skin scaliness (Visioscan camera) in volunteers; type: in vivo, human; conditions: 0.25% arjunolic acid in the formulation as printed, versus carrier, twice daily, 4 weeks, left inner forearm, figure 5
Procedure: For this study 30 volunteers were recruited. […] They applied the test formulation twice daily over a period of 4 weeks on the left inner forearm. The measurement was carried out after an acclimatization of the volunteers at room temperature and 50 % relative humidity before the treatment started and after 4 weeks of application.
For the evaluation of the skin scaliness a special camera (Visioscan VC 98, Courage & Khazaka, Cologne, D) was used. […] The picture taken with this camera is converted into a digital signal with 256 grey levels. Via the grey level distribution the software calculates the skin scaliness.

[7] = tested on: human skin fibroblast cells; conditions: incubation of human skin fibroblast cells with 6.25 mg/mL arjunolic acid; cited from earlier work
[8] = tested on: skin; conditions: moisturizer containing arjunolic acid, volunteers; cited from earlier work

solubility in glycerin ([1]; glycerin): less than 0.1%
solubility in ispropylmyristate ([1]; ispropylmyristate): less than 0.1%
solubility in mineral oil ([1]; mineral oil): less than 0.1%
solubility in propylene glycol ([1]; propylene glycol): 0.6%
solubility in water ([1]; water): insoluble
Compound: CC1(C)CC[C@]2(C(=O)O)CC[C@]3(C)C(=CC[C@@H]4[C@@]5(C)C[C@@H](O)[C@H](O)[C@@](C)(CO)[C@@H]5CC[C@]43C)[C@@H]2C1 [arjunolic acid, 2a,3b,23-trihydroxyolean-12-en-28-oic acid]
fold induction at 0.325 % [2]: ~10
transepidermal water loss (TEWL) [3]: improves skin barrier
skin hydration [4]: increases skin hydration significantly
R1, the remaining deformation after the first stretching cycle ([5]; figure 3): improved significantly
R5, the netto elasticity ([5]; figure 4): improved significantly
reduction of the scaliness [6]: improved further
collagen formation [7]: 30.9 ng/mg
anti-wrinkle effects [8]: good anti-wrinkle effects
